These results are taken from patent publication US8703805B2 (Exelixis Patent Company LLC, priority 2005, dated 2014).

Each structure is given as a SMILES string.

The test has as its system LXRα and/or LXRβ. The test is described as follows: LXR/LXRE co-transfection assay (luciferase reporter, CV-1 cells). The test is classed as cell-based, human. As to conditions: IC50 or EC50 for LXR (LXRα and/or LXRβ, not distinguished), tested as described in Example 109, CV-1 cells. The source says: To measure the ability of compounds to activate or inhibit the transcriptional activity of LXR in a cell based assay, the co-transfection assay was used. It has been shown that LXR functions as a heterodimer with RXR. For the co-transfection assay; expression plasmids for LXR and RXR are introduced via transient transfection into mammalian cells along with a luciferase reporter plasmid that contains one copy of a DNA sequence that is bound by LXR-RXR heterodimers (LXRE; Willy, P. ad. 1995). Treatment of transfected cells with an LXR agonist increases the transcriptional activity of LXR, which is measured by an increase in luciferase activity.
CV-1 African Green Monkey Kidney Cells Co-transfection expression plasmids, comprising full-length LXRα (pCMX-h LXRα, LXRβ (pCMX-hLXRβ), or RXRα (pCMX-RXR), reporter plasmid (LXREx1-Tk-Luciferase), and control (pCMX-Galactosidase expression vector) (Willey et al. Genes & Development 91033-1045 (1995)). Transfection reagent such as FuGENE6 (Roche). 1× Cell lysis buffer (1% Triton X 100 (IT Baker X200-07), 10% Glycerol (JT Baker M778-07), 5 mM Ditriotreitol (Quantum Bioprobe DTT03; add fresh before lysing), 1 mM EGTA (Ethylene Glycol-bis(B-Amino ethyl ether)-N,N,N′,N′-Tetracetic Acid) (Sigma E-4378), 25 mM Tricine (ICN 807420) pH 7.8) 1× Luciferase assay buffer (pH at 7.8) (0.73 mM ATP, 22.3 mM Tricine, 0.11 mM EDTA, 33.3 mM DTT) 1× Luciferrin/CoA (11 mM Luciferin, 3.05 mM Coenzyme A, 10 mM HEPES) Preparation of Screening Reagents
CV-1 cells were prepared 24 hours prior to the experiment by plating them into T-175 flasks or 500 cm^2 dishes in order to achieve 70-80% confluency on the day of the transfection. The number of cells to be transfected was determined by the number of plates to be screened. each 384 well plate requires 1.92×10^6 cells or 5000 cells per well. DNA Transfection Reagent was prepared by mixing the required plasmid DNAs with a cationic lipid transfection reagent FuGENE6 (Roche) by following the instructions provided with the reagents. Optimal DNA amounts were determined empirically per cell line and size of vessel to be transfected. 10-12 mL of media was added to the DNA Transfection Reagent and this mixture was added to the cells after aspirating media from the T175 cm^2 flask. Cells were then incubated at least 5 hours at 37° C. to prepare screening cells.
Luciferase assay reagent was prepared by combining before use (per 10 mL): […], 0.54 mL of 1× Luciferrin/CoA; 0.54 mL of 0.2 M Magnesium sulfate
Assay plates were prepared by dispensing 5 μL of compound per well of a 384 well plate to achieve final compound concentration of 10 μM and no more than 1% DMSO. Media was removed from the screening cells, the cells trypsinized, harvested cells by centrifugation, counted, and plated at a density of approximately 5000 cells per well in the 384 well assay plate prepared above in a volume of about 45 μL. Assay plates containing both compounds and screening cells (50 μL in total volume) were incubated for 20 hours at 37° C.
After incubation with compounds, media was removed from the cells and lysis buffer (30 μL/well) added. After 30 minutes at ambient temperature, luciferase assay buffer (30 μL/well) was added and the assay plates read on a luminometer (PE Biosystems Northstar reader with on-board injectors, or equivalent). Plates were read immediately after addition of luciferase assay buffer.
The LXR/LXRE co-transfection assay can be used to establish the EC50/IC50 values for potency and percent activity or inhibition for efficacy. Efficacy defines the activity of a compound relative to a high control ((N-(3-((4-fluorophenyl)-(naphthalene-2-sulfonyl)amino)propyl)-2,2-dimethylpropionamide)) or a low control (DMSO/vehicle). The dose response curves are generated from an 8 point curve with concentrations differing by ½ LOG units. each point represents the average of 4 wells of data from a 384 well plate. […]
For orientation: In a reporter assay the amount or activity of a reporter protein is the signal.

What is called EC50 is the concentration at which the effect is half-maximal. Lower therefore signals higher potency in that assay. In the case of `CS(=O)(=O)c1cccc(-c2ccc(-c3cc(CN4CCCC4)nn3-c3ccccc3Cl)s2)c1` [Example 456, 1-(2-chlorophenyl)-5-{5-[3-(methylsulfonyl)phenyl]-2-thienyl}-3-(pyrrolidin-1-ylmethyl)-1H-pyrazole], the EC50 was in the range of 1000 to 10000 nM. The value for `CCN(Cc1ccncc1)Cc1cc(-c2ccc(-c3cccc(S(C)(=O)=O)c3)s2)n(-c2ccccc2Cl)n1` [Example 485, N-{[1-(2-chlorophenyl)-5-{5-[3-(methylsulfonyl)phenyl]-2-thienyl}-1H-pyrazol-3-yl]methyl}-N-(pyridin-4-ylmethyl)ethanamine] was less than 1000 nM; that for `CN1CCN(C(=O)c2cc(-c3ccc(-c4cccc(S(C)(=O)=O)c4)s3)n(-c3ccccc3Cl)n2)CC1` [Example 508, 1-{[1-(2-chlorophenyl)-5-{5-[3-(methylsulfonyl)phenyl]-2-thienyl}-1H-pyrazole-3-yl]carbonyl}-4-methylpiperazine] was 1000 to 10000 nM. As to `CN(Cc1ccsc1)Cc1cc(-c2ccc(-c3cccc(S(C)(=O)=O)c3)s2)n(-c2ccccc2Cl)n1` [Example 544, 1-[1-(2-chlorophenyl)-5-{5-[3-(methylsulfonyl)phenyl]-2-thienyl}-1H-pyrazol-3-yl]-N-methyl-N-(3-thienylmethyl)methanamine], the EC50 lay in the range of 1000 to 10000 nM. The value for `CS(=O)(=O)c1cccc(-c2ccc(-c3cc(CNc4cc[nH]c(=S)n4)nn3-c3ccccc3Cl)s2)c1` [Example 545, 4-({[1-(2-chlorophenyl)-5-{5-[3-(methylsulfonyl)phenyl]-2-thienyl}-1H-pyrazol-3-yl]methyl}amino)pyrimidine-2(1H)-thione] was 1000 to 10000 nM. Take `CN(Cc1ccncc1)Cc1cc(-c2ccc(-c3cccc(S(C)(=O)=O)c3)s2)n(-c2ccccc2Cl)n1` [Example 547, 1-[1-(2-chlorophenyl)-5-{5-[3-(methylsulfonyl)phenyl]-2-thienyl}-1H-pyrazol-3-yl]-N-methyl-N-(pyridin-4-ylmethyl)methanamine]: the EC50 was less than 1000 nM. The same measure for `CN(CC#N)Cc1cc(-c2ccc(-c3cccc(S(C)(=O)=O)c3)s2)n(-c2ccccc2Cl)n1` [Example 558, [{[1-(2-chlorophenyl)-5-{5-[3-(methylsulfonyl)phenyl]-2-thienyl}-1H-pyrazol-3-yl]methyl}(methyl)amino]acetonitrile]: 1000 to 10000 nM; for `Cc1n[nH]c(C)c1CN(C)Cc1cc(-c2ccc(-c3cccc(S(C)(=O)=O)c3)s2)n(-c2ccccc2Cl)n1` [Example 568, 1-[1-(2-chlorophenyl)-5-{5-[3-(methylsulfonyl)phenyl]-2-thienyl}-1H-pyrazol-3-yl]-N-[(3,5-dimethyl-1H-pyrazol-4-yl)methyl}-N-methylmethanamine]: 1000 to 10000 nM. The value for `CCN(CC)CCN(CC)C(=O)c1cc(-c2ccc(-c3cccc(S(C)(=O)=O)c3)s2)n(-c2ccccc2Cl)n1` [Example 587, 1-(2-chlorophenyl)-N-[2-(diethylamino)ethyl]-N-ethyl-5-{5-[3-(methylsulfonyl)phenyl]-2-thienyl}-1H-pyrazole-3-carboxamide] was less than 1000 nM; that for `CN(C)CCCN(C)C(=O)c1cc(-c2ccc(-c3cccc(S(C)(=O)=O)c3)s2)n(-c2ccccc2Cl)n1` [Example 588, 1-(2-chlorophenyl)-N-[3-(dimethylamino)propyl]-N-methyl-5-{5-[3-(methylsulfonyl)phenyl]-2-thienyl}-1H-pyrazole-3-carboxamide] was less than 1000 nM. The value for `COC(=O)CN(C)C(=O)c1cc(-c2ccc(-c3cccc(S(C)(=O)=O)c3)s2)n(-c2ccccc2Cl)n1` [Example 589, methyl N-{[1-(2-chlorophenyl)-5-{5-[3-(methylsulfonyl)phenyl]-2-thienyl}-1H-pyrazol-3-yl]carbonyl}-N-methylglycinate] was less than 1000 nM. Consider `CS(=O)(=O)c1cccc(-c2ccc(-c3cc(C(=O)NCCN4CCOCC4)nn3-c3ccccc3Cl)s2)c1` [Example 590, 1-(2-chlorophenyl)-5-{5-[3-(methylsulfonyl)phenyl]-2-thienyl}-N-(2-morpholin-4-ylmethyl)-1H-pyrazole-3-carboxamide], for which the EC50 was 1000 to 10000 nM. The value for `CN(C)C1CCN(C(=O)c2cc(-c3ccc(-c4cccc(S(C)(=O)=O)c4)s3)n(-c3ccccc3Cl)n2)CC1` [Example 591, 1-{[1-(2-chlorophenyl)-5-{5-[3-(methylsulfonyl)phenyl]-2-thienyl}-1H-pyrazol-3-yl]carbonyl}-N,N-dimethylpiperidin-4-amine] was 1000 to 10000 nM; that for `CS(=O)(=O)c1cccc(-c2ccc(-c3cc(C(=O)N4CCC(C(=O)O)CC4)nn3-c3ccccc3Cl)s2)c1` [Example 592, 1-(1-(2-chlorophenyl)-5-(5-(3-(methylsulfonyl)phenyl)thiophen-2-yl)-1H-pyrazole-3-carbonyl)piperidine-4-carboxylic acid] was 1000 to 10000 nM; that for `CN1CCC(N(C)C(=O)c2cc(-c3ccc(-c4cccc(S(C)(=O)=O)c4)s3)n(-c3ccccc3Cl)n2)CC1` [Example 716, 1-(2-chlorophenyl)-N-methyl-N-(1-methylpiperidin-4-yl)-5-{5-[3-(methylsulfonyl)phenyl]-2-thienyl}-1H-pyrazole-3-carboxamide] was less than 1000 nM.

`CN(CC(N)=O)C(=O)c1cc(-c2ccc(-c3cccc(S(C)(=O)=O)c3)s2)n(-c2ccccc2Cl)n1` [Example 724, N-(2-amino-2-oxoethyl)-1-(2-chlorophenyl)-N-methyl-5-{5-[3-(methylsulfonyl)phenyl]-2-thienyl}-1H-pyrazole-3-carboxamide] had an EC50 of 1000 to 10000 nM. Take `CS(=O)(=O)c1cccc(-c2ccc(-c3cc(C(=O)NCCCN4CCCC4)nn3-c3ccccc3Cl)s2)c1` [Example 733, 1-(2-chlorophenyl)-5-{5-[3-(methylsulfonyl)phenyl]-2-thienyl}-N-(3-pyrrolidin-1-ylpropyl)-1H-pyrazol-3-carboxamide]: the EC50 was less than 1000 nM.

On to `CCN1CCC(CNC(=O)c2cc(-c3ccc(-c4cccc(S(C)(=O)=O)c4)s3)n(-c3ccccc3Cl)n2)C1` (stereo not shown) [Example 739, 1-(2-chlorophenyl)-N-[(1-ethylpyrrolidin-3-yl)methyl]-5-{5-[3-(methylsulfonyl)phenyl}-2-thienyl}-1H-pyrazole-3-carboxamide], for which the EC50 is 1000 to 10000 nM. `CC(=O)c1cccc(-c2ccc(-c3cc(C(C)(C)O)nn3-c3ccccc3Cl)s2)c1` [Example 755, 1-(3-{5-[1-(2-chlorophenyl)-3-(1-hydroxy-1-methylethyl)-1H-pyrazol-5-yl]-2-thienyl}phenyl)ethanone] returned a concentration giving a half-maximal response (EC50) of 1000 to 10000 nM. Compound `CC(C)(O)c1cc(-c2ccc(-c3ccc(S(C)(=O)=O)cc3)s2)n(-c2ccccc2Cl)n1` [Example 804, 2-[1-(2-chlorophenyl)-5-{5-[4-(methylsulfonyl)phenyl]-2-thienyl}-1H-pyrazol-3-yl]propan-2-ol] displayed an EC50 of 1000 to 10000 nM. In turn, `COc1cccc(-c2ccc(-c3cc(C(C)(C)O)nn3-c3ccccc3Cl)s2)c1OC` [Example 859, 2-[5-{5-[2,3-bis(methyloxy)phenyl]-2-thienyl}-1-(2-chlorophenyl)-1H-pyrazol-3-yl]propan-2-ol] had a concentration for a half-maximal effect (EC50) of 1000 to 10000 nM.

`O=C(NCCN1CCOCC1)c1ccc(-c2cc(C(F)(F)F)nn2-c2ccccc2Cl)cc1` [Example 970, 4-[1-(2-chlorophenyl)-3-(trifluoromethyl)-1H-pyrazol-5-yl]-N-(2-morpholin-4-ylethyl)benzamide]: the half-maximal effective concentration (EC50) was 1000 to 10000 nM.
